In a compilation of properties of binary mixtures (doi:10.1021/acs.jced.9b00648):

Assay: xn = mol fraction of the nth substance listed
Settings: 100 kPa

CC#N + C=C[n+]1ccn(CC(N)=O)c1.O=S(=O)([N-]S(=O)(=O)C(F)(F)F)C(F)(F)F
x2 = 0
Settings	viscosity [mPa·s]
298.15 K	0.344
303.15 K	0.324
308.15 K	0.308
313.15 K	0.293
318.15 K	0.277
328.15 K	0.246
333.15 K	0.219

C=C[n+]1ccn(CC(N)=O)c1.O=S(=O)([N-]S(=O)(=O)C(F)(F)F)C(F)(F)F + CC#N
Settings	electrical conductivity [S/m]	viscosity [mPa·s]
298.15 K, x1 = 0.02	2.52	–
298.15 K, x1 = 0.047	3.16	–
298.15 K, x1 = 0.05	–	2.88
298.15 K, x1 = 0.07	3.32	–
298.15 K, x1 = 0.08	3.26	–
298.15 K, x1 = 0.1	3.06	10.3
298.15 K, x1 = 0.2	1.6	–
298.15 K, x1 = 0.201	–	75
298.15 K, x1 = 0.3026	–	276
298.15 K, x1 = 0.393	0.39	–
298.15 K, x1 = 0.4011	–	810
298.15 K, x1 = 1	0.01	281
303.15 K, x1 = 0.01	1.34	0.64
303.15 K, x1 = 0.02	2.64	–
303.15 K, x1 = 0.047	3.32	–
303.15 K, x1 = 0.05	–	2.84
303.15 K, x1 = 0.08	3.47	–
303.15 K, x1 = 0.3026	–	247
303.15 K, x1 = 1	0.02	140
308.15 K, x1 = 0.047	3.52	–
308.15 K, x1 = 0.05	–	2.71
308.15 K, x1 = 0.07	3.74	–
308.15 K, x1 = 0.08	3.72	–
308.15 K, x1 = 0.1	3.53	9.2
308.15 K, x1 = 0.2	1.98	–
308.15 K, x1 = 0.3026	–	202
308.15 K, x1 = 0.393	0.6	–
308.15 K, x1 = 0.4011	–	550
313.15 K, x1 = 0.01	1.47	0.57
313.15 K, x1 = 0.02	2.9	–
313.15 K, x1 = 0.047	3.7	–
313.15 K, x1 = 0.05	–	2.49
313.15 K, x1 = 0.07	3.96	–
313.15 K, x1 = 0.08	3.95	–
313.15 K, x1 = 0.2	2.19	–
313.15 K, x1 = 0.201	–	51
313.15 K, x1 = 0.3026	–	163
313.15 K, x1 = 0.393	0.73	–
313.15 K, x1 = 1	0.05	35.3
318.15 K, x1 = 0.02	3.01	–
318.15 K, x1 = 0.05	–	2.39
318.15 K, x1 = 0.07	4.16	–
318.15 K, x1 = 0.08	4.17	–
318.15 K, x1 = 0.1	4.02	7.7
318.15 K, x1 = 0.201	–	45.9
318.15 K, x1 = 0.3026	–	142
318.15 K, x1 = 0.393	0.86	–
318.15 K, x1 = 0.4011	–	352
318.15 K, x1 = 1	0.07	19.8
323.15 K, x1 = 0.01	1.58	0.52
323.15 K, x1 = 0.02	3.13	–
323.15 K, x1 = 0.047	4.03	–
323.15 K, x1 = 0.05	–	2.26
323.15 K, x1 = 0.07	4.36	–
323.15 K, x1 = 0.1	4.25	7
323.15 K, x1 = 0.201	–	40.2
323.15 K, x1 = 0.393	1	–
323.15 K, x1 = 0.4011	–	288
328.15 K, x1 = 0.01	1.65	0.48
328.15 K, x1 = 0.02	3.25	–
328.15 K, x1 = 0.047	4.19	–
328.15 K, x1 = 0.05	–	2.17
328.15 K, x1 = 0.08	4.61	–
328.15 K, x1 = 0.2	2.8	–
328.15 K, x1 = 0.201	–	36.8
328.15 K, x1 = 0.3026	–	105
328.15 K, x1 = 0.393	1.16	–
333.15 K, x1 = 0.01	1.69	0.47
333.15 K, x1 = 0.02	3.35	–
333.15 K, x1 = 0.05	–	2.01
333.15 K, x1 = 0.07	4.79	–
333.15 K, x1 = 0.08	4.77	–
333.15 K, x1 = 0.1	4.72	6.1
333.15 K, x1 = 0.2	3	–
333.15 K, x1 = 0.3026	–	90
333.15 K, x1 = 0.393	1.33	–
333.15 K, x1 = 0.4011	–	193
333.15 K, x1 = 1	0.2	6.2

O=S(=O)([N-]S(=O)(=O)C(F)(F)F)C(F)(F)F.[Li+] + CC#N
electrical conductivity [S/m]
Settings	298.15 K	303.15 K	308.15 K	313.15 K	318.15 K	323.15 K	328.15 K	333.15 K
x1 = 0.0207	2.67	–	2.91	–	3.14	3.24	3.34	3.47
x1 = 0.0307	3.11	–	–	3.47	3.58	3.7	3.81	3.92
x1 = 0.0405	3.53	3.68	–	4.01	–	4.29	4.43	4.57
x1 = 0.0501	3.93	4.1	–	4.47	–	4.81	–	5.16
x1 = 0.0596	4.07	4.25	4.45	4.63	4.8	–	–	–
x1 = 0.0688	3.93	4.12	4.33	4.53	4.7	4.87	5.05	5.24
x1 = 0.0779	3.82	4.01	–	–	4.52	4.74	4.95	5.17
x1 = 0.0868	3.65	3.84	4.05	4.26	4.45	4.63	4.82	4.99
